According to paper PMC9269301, “Phytochemical Analysis, Antioxidant, Antimicrobial, and Cytotoxic Activity of Different Extracts of Xanthoparmelia stenophylla Lichen from Stara Planina, Serbia” (Plants, 2022):
≈ marks a conversion by molar mass, not a printed value. Marks after values point to notes of the source that are not given here.

What was measured:
E. coli (isolate) = assay: Microdilution with resazurin, antibacterial; format: cell-based, Escherichia coli; conditions: Escherichia coli, antibiotics
Procedure: (§1) The tested methanol, acetone, and n-hexane extracts, as well as the component (usnic acid) of X. stenophylla, were dissolved in 10% dimethyl sulfoxide (DMSO) and then diluted into the nutrient liquid medium. DMSO was obtained from Acros Organics (Fair Lawn, NJ, USA). Resazurin was obtained from Alfa Aesar GmbH & Co. (KG, Karlsruhe, Germany).
(§2) The antimicrobial activity of the extracts and components was tested against 19 microorganisms. The experiment involved 15 strains of bacteria (i.e., 6 standard strains: Staphylococcus aureus ATCC 6538, Bacillus subtilis ATCC 6633, Proteus mirabilis ATCC 12453, Pseudomonas aeruginosa ATCC 27853, Klebsiella pneumoniae ATCC 70063, and Escherichia coli ATCC 25922; 9 isolates: Staphylococcus aureus, Escherichia coli, Salmonella enterica, Salmonella Typhimurium, Proteus mirabilis, Klebsiella pneumoniae, Pseudomonas aeruginosa, Bacillus subtilis, and Bacillus cereus). In addition, four fungal strains (i.e., two standard strains: Candida albicans ATCC 10231 and Aspergillus niger ATCC 16888; two isolates: Saccharomyces cerevisiae and Candida albicans) were tested. All isolates were a generous gift from the Institute of Public Health, Kragujevac. The other microorganisms were provided from the collection held by the Microbiology Laboratory Faculty of Science, University of Kragujevac.
(§3) The bacterial suspensions were prepared by the direct colony method. The turbidity of the initial suspension was adjusted using a densitometer (DEN-1, BioSan, Riga, Latvia). When adjusted to the turbidity of the 0.5 McFarland’s standard (Andrews, 2005) the bacteria suspension contained approximately 10^8 colony-forming units (CFU)/mL, and the suspension of yeast contained 10^6 CFU/mL; 1:100 dilutions of the initial suspension were additionally prepared in sterile 0.85% saline. The suspensions of fungal spores were prepared by gentle stripping of spores from slopes with growing mycelia. The resulting suspensions were 1:1000 diluted in sterile 0.85% saline.
(§4) Antimicrobial activity was tested by determining the minimum inhibitory concentrations (MICs) and minimum microbicidal concentrations (MBCs) using the microdilution plate method with resazurin [56]. The 96-well plates were prepared by dispensing 100 μL of Mueller–Hinton broth for bacteria and Sabouard broth for fungi into each well. A 10 μL aliquot from the stock solution of the tested extract or component was added to the first row of the plate. Then, two-fold serial dilutions were performed using a multichannel pipette. The obtained concentration range was from 10 to 0.08 mg/mL. The method is described in detail in [76].
(§5) Each test included growth control and sterility control.
(§6) Minimum microbicidal concentrations were determined by plating 10 μL of samples from wells where no indicator color change or no mycelia growth was recorded on a nutrient agar medium. At the end of the incubation period, the lowest concentration with no growth (no colony) was defined as the minimum microbicidal concentration.

E. coli ATCC 25922 = assay: Microdilution with resazurin, antibacterial; format: cell-based, Escherichia coli; conditions: Escherichia coli, ATCC25922, antibiotics
Procedure: as §1, §2, §3, §4, §5, §6

S. enterica (isolate) = assay: microbe, parasite or virus in culture; format: cell-based, Salmonella enterica; conditions: Salmonella enterica, S. enterica, antibiotics
Procedure: as §1, §2, §3, §4, §5, §6

S. Typhimurium (isolate) = assay: Microdilution with resazurin, antibacterial; format: cell-based, Salmonella Typhimurium; conditions: Salmonella enterica, antibiotics
Procedure: as §1, §2, §3, §4, §5, §6

P. mirabilis (isolate) = assay: Microdilution with resazurin, antibacterial; format: cell-based, Proteus mirabilis; conditions: Proteus mirabilis, antibiotics
Procedure: as §1, §2, §3, §4, §5, §6

P. mirabilis ATCC 12453 = assay: Microdilution with resazurin, antibacterial; format: cell-based, Proteus mirabilis; conditions: Proteus mirabilis, ATCC12453, antibiotics
Procedure: as §1, §2, §3, §4, §5, §6

K. pneumoniae (isolate) = assay: Microdilution with resazurin, antibacterial; format: cell-based, Klebsiella pneumoniae; conditions: Klebsiella pneumoniae, antibiotics
Procedure: as §1, §2, §3, §4, §5, §6

K. pneumoniae ATCC 70063 = assay: Microdilution with resazurin, antibacterial; format: cell-based, Klebsiella pneumoniae; conditions: Klebsiella pneumoniae, ATCC70063, antibiotics
Procedure: as §1, §2, §3, §4, §5, §6

P. aeruginosa (isolate) = assay: Microdilution with resazurin, antibacterial; format: cell-based, Pseudomonas aeruginosa; conditions: Pseudomonas aeruginosa, antibiotics
Procedure: as §1, §2, §3, §4, §5, §6

P. aeruginosa ATCC 27853 = assay: Microdilution with resazurin, antibacterial; format: cell-based, Pseudomonas aeruginosa; conditions: Pseudomonas aeruginosa, ATCC27853, antibiotics
Procedure: as §1, §2, §3, §4, §5, §6

B. subtilis (isolate) = assay: Microdilution with resazurin, antibacterial; format: cell-based, Bacillus subtilis; conditions: Bacillus subtilis, antibiotics
Procedure: as §1, §2, §3, §4, §5, §6

B. subtilis ATCC 6633 = assay: Microdilution with resazurin, antibacterial; format: cell-based, Bacillus subtilis; conditions: Bacillus subtilis, ATCC6633, antibiotics
Procedure: as §1, §2, §3, §4, §5, §6

B. cereus (isolate) = assay: Microdilution with resazurin, antibacterial; format: cell-based, Bacillus cereus; conditions: Bacillus cereus, antibiotics
Procedure: as §1, §2, §3, §4, §5, §6

S. aureus (isolate) = assay: Microdilution with resazurin, antibacterial; format: cell-based, Staphylococcus aureus; conditions: Staphylococcus aureus, antibiotics
Procedure: as §1, §2, §3, §4, §5, §6

S. aureus ATCC 6538 = assay: Microdilution with resazurin, antibacterial; format: cell-based, Staphylococcus aureus; conditions: Staphylococcus aureus, ATCC6538, antibiotics
Procedure: as §1, §2, §3, §4, §5, §6

[1] = DPPH radical scavenging activity; format: biochemical; conditions: mean ± SD, triplicate
Procedure: All chemicals for the antioxidant activity test were purchased from Sigma Aldrich. All measurements were conducted in triplicate, and a Shimadzu UV-1800 spectrophotometer was used for all measurements during antioxidant activity experiments. The IC50 value was used for comparing different radical scavenging effects between investigated extracts, isolated compounds, and positive controls. […] [71] with certain modifications. […] The solution was prepared ex tempore and stored in a tinted bottle in the refrigerator until the experiments were performed. […] The reaction mixture was vortexed and allowed to incubate in the dark for one hour, after which the absorbance was measured at 517 nm relative to the blank. […] Ac stands for absorbance of the control (which contains all reagents, except the tested extract or compound), and As is the absorbance of the sample.

[2] = Hydroxyl radical scavenging activity (2-deoxyribose); format: biochemical; conditions: mean ± SD, triplicate
Procedure: All chemicals for the antioxidant activity test were purchased from Sigma Aldrich. All measurements were conducted in triplicate, and a Shimadzu UV-1800 spectrophotometer was used for all measurements during antioxidant activity experiments. The IC50 value was used for comparing different radical scavenging effects between investigated extracts, isolated compounds, and positive controls. The ability to inhibit non-site-specific peroxidation mediated by hydroxyl radicals for […], and XSH was determined using the method previously described in the literature. During the experiment, in a reaction mixture that contained 500 μL of 5.6 mM 2-deoxy-D-ribose in KH2PO4-NaOH buffer (50 mM, pH 7.4), 100 μL of 1.0 mM aqueous ascorbic acid, 100 μL of 1.0 mM H2O2, and 200 μL of premixed solution of 100 μM FeCl3 and […] EDTA (1:1 v/v), 100 μL of extract dissolved in water was added. The tubes were vigorously shaken, vortexed, and incubated for 30 min at 50 °C. […] The mixture was vortexed again and heated in a water bath for 30 min at 50 °C. […] Ac stands for absorbance of the control (which contains all reagents, except the tested extract or compound), and As is the absorbance of the sample.

[3] = Superoxide anion radical scavenging activity (NBT/NADH/PMS); format: biochemical; conditions: mean ± SD, triplicate
Procedure: All chemicals for the antioxidant activity test were purchased from Sigma Aldrich. All measurements were conducted in triplicate, and a Shimadzu UV-1800 spectrophotometer was used for all measurements during antioxidant activity experiments. The IC50 value was used for comparing different radical scavenging effects between investigated extracts, isolated compounds, and positive controls. […] [75] with modifications. […] To initiate the reaction, 0.1 mL of phenazine methosulfate (PMS) solution ([…] in 0.1 M phosphate buffer at pH 7.4) was added to each tube. The mixture was incubated at room temperature for 5 min, and then the absorbance was measured at 560 nm relative to the blank. Ascorbic acid, gallic acid, and Trolox were used as positive controls, and a decrease in absorbance indicated increased superoxide anion radical scavenging activity. […] Ac stands for absorbance of the control (which contains all reagents, except the tested extract or compound), and As is the absorbance of the sample.

S. cerevisiae (isolate) = assay: Microdilution with resazurin, antifungal; format: cell-based, Saccharomyces cerevisiae; conditions: Saccharomyces cerevisiae, antimycotics
Procedure: as §1, §2, §3
as §4, with “[76]. […]” for “[76].”
Minimum microbicidal concentrations were determined by plating 10 μL of samples from wells where no indicator color change or no mycelia growth was recorded on a nutrient agar medium. […]

C. albicans (isolate) = assay: Microdilution with resazurin, antifungal; format: cell-based, Candida albicans; conditions: Candida albicans, antimycotics
Procedure: as §1, §2, §3, §4, §5, §6

C. albicans ATCC 10231 = assay: Microdilution with resazurin, antifungal; format: cell-based, Candida albicans; conditions: Candida albicans, ATCC10231, antimycotics
Procedure: as §1, §2, §3, §4, §5, §6

A. niger ATCC 16888 = assay: Microdilution with resazurin, antifungal; format: cell-based, Aspergillus niger; conditions: Aspergillus niger, ATCC16888, antimycotics
Procedure: as §1, §2, §3, §4, §5, §6

CC1(C)S[C@@H]2[C@H](NC(=O)[C@H](N)c3ccccc3)C(=O)N2[C@H]1C(=O)O [AMP, ampicillin]
MBC (E. coli (isolate); read-out: MBC): 1.2 µg/mL (≈ 3.43 µM) | MIC (E. coli (isolate); read-out: MIC): 2.1 µg/mL (≈ 6.01 µM) | MBC (E. coli ATCC 25922; read-out: MBC): 0.5 µg/mL (≈ 1.43 µM) | MIC (E. coli ATCC 25922; read-out: MIC): 0.37 µg/mL (≈ 1.06 µM) | MBC (S. enterica (isolate); read-out: MBC): 1 µg/mL (≈ 2.86 µM) | MIC (S. enterica (isolate); read-out: MIC): 1 µg/mL (≈ 2.86 µM) | MBC (S. Typhimurium (isolate); read-out: MBC): 2 µg/mL (≈ 5.72 µM) | MIC (S. Typhimurium (isolate); read-out: MIC): 2 µg/mL (≈ 5.72 µM) | MBC (P. mirabilis (isolate); read-out: MBC): > 128 µg/mL | MIC (P. mirabilis (isolate); read-out: MIC): > 128 µg/mL | MBC (P. mirabilis ATCC 12453; read-out: MBC): 4 µg/mL (≈ 11.4 µM) | MIC (P. mirabilis ATCC 12453; read-out: MIC): 4 µg/mL (≈ 11.4 µM) | MBC (K. pneumoniae (isolate); read-out: MBC): > 128 µg/mL | MIC (K. pneumoniae (isolate); read-out: MIC): > 128 µg/mL | MBC (K. pneumoniae ATCC 70063; read-out: MBC): > 128 µg/mL | MIC (K. pneumoniae ATCC 70063; read-out: MIC): > 128 µg/mL | MBC (P. aeruginosa (isolate); read-out: MBC): > 128 µg/mL | MIC (P. aeruginosa (isolate); read-out: MIC): > 128 µg/mL | MBC (P. aeruginosa ATCC 27853; read-out: MBC): > 128 µg/mL | MIC (P. aeruginosa ATCC 27853; read-out: MIC): > 128 µg/mL | MBC (B. subtilis (isolate); read-out: MBC): 128 µg/mL (≈ 366 µM) | MIC (B. subtilis (isolate); read-out: MIC): 16 µg/mL (≈ 45.8 µM) | MBC (B. subtilis ATCC 6633; read-out: MBC): 4 µg/mL (≈ 11.4 µM) | MIC (B. subtilis ATCC 6633; read-out: MIC): 3 µg/mL (≈ 8.59 µM) | MBC (B. cereus (isolate); read-out: MBC): 6 µg/mL (≈ 17.2 µM) | MIC (B. cereus (isolate); read-out: MIC): 4 µg/mL (≈ 11.4 µM) | MBC (S. aureus (isolate); read-out: MBC): < 0.06 µg/mL | MIC (S. aureus (isolate); read-out: MIC): < 0.06 µg/mL | MBC (S. aureus ATCC 6538; read-out: MBC): 0.75 µg/mL (≈ 2.15 µM) | MIC (S. aureus ATCC 6538; read-out: MIC): 0.25 µg/mL (≈ 0.715 µM)

O=C1O[C@H]([C@@H](O)CO)C(O)=C1O [Ascorbic acid, ascorbic acid]
DPPH Radical Scavenging Activity (IC50) [1]: 6.31 ± 0.78 ^a,b,c,d µg/mL | Hydroxyl Radical Scavenging Activity (IC50) [2]: 155.91 ± 0.64 ^a,d,e µg/mL | Superoxide Anion Radical Scavenging Activity (IC50) [3]: 105.62 ± 0.84 ^c,d,e,f µg/mL

OC(Cn1cncn1)(Cn1cncn1)c1ccc(F)cc1F [FC, fluconazole]
MFC (S. cerevisiae (isolate); read-out: MFC): 7.81 µg/mL (≈ 25.5 µM) | MIC (S. cerevisiae (isolate); read-out: MIC): 7.81 µg/mL (≈ 25.5 µM) | MFC (C. albicans (isolate); read-out: MFC): 62.5 µg/mL (≈ 204 µM) | MIC (C. albicans (isolate); read-out: MIC): 62.5 µg/mL (≈ 204 µM) | MFC (C. albicans ATCC 10231; read-out: MFC): 31.2 µg/mL (≈ 102 µM) | MIC (C. albicans ATCC 10231; read-out: MIC): 31.2 µg/mL (≈ 102 µM) | MFC (A. niger ATCC 16888; read-out: MFC): 500 µg/mL (≈ 1630 µM) | MIC (A. niger ATCC 16888; read-out: MIC): 250 µg/mL (≈ 816 µM)

O=C(O)c1cc(O)c(O)c(O)c1 [Gallic acid, gallic acid]
DPPH Radical Scavenging Activity (IC50) [1]: 3.72 ± 0.65 ^a,b,c,d,e µg/mL | Hydroxyl Radical Scavenging Activity (IC50) [2]: 45.12 ± 0.51 ^a,b,c,d,e µg/mL | Superoxide Anion Radical Scavenging Activity (IC50) [3]: 68.55 ± 0.45 ^a,b,c,d,e µg/mL

Cc1c(C)c2c(c(C)c1O)CCC(C)(C(=O)O)O2 (centres unmarked) [Trolox, 6-hydroxy-2,5,7,8-tetramethylchroman-2-carboxylic acid]
DPPH Radical Scavenging Activity (IC50) [1]: 10.79 ± 0.83 ^a,b,c,d,e µg/mL | Hydroxyl Radical Scavenging Activity (IC50) [2]: 131.45 ± 0.56 ^c,e µg/mL | Superoxide Anion Radical Scavenging Activity (IC50) [3]: 135.14 ± 0.88 ^a,b,d,e,f µg/mL
